Square brackets hold non-standard residues; d marks the D form. Peptide text beside a SMILES is read from it. NMeF = CN[C@@H](Cc1ccccc1)C(=O)O; NMeI = CC[C@H](C)[C@H](NC)C(=O)O; NMeL = CN[C@@H](CC(C)C)C(=O)O; NMeS = CN[C@@H](CO)C(=O)O; Sar = CNCC(=O)O
Experiments:
[1] = Apparent permeability across human Caco2 cells at 50 uM after 90 mins by LC-MS analysis; format: ADME, cell-based; conditions: caco-2, 1.5 h
[2] = Apparent permeability of the compound at 50 uM after 5 hrs by PAMPA; format: ADME
Caco-2 = assay: Cytotoxicity against human Caco2 cells at 0.5 to 64 uM after 2 hrs by resazurin dye based fluorescence assay; format: cell-based; conditions: caco-2, 2 h
[3] = Inhibition of porcine pepsin using EDANS-DABCYL as substrate pretreated for 5 mins followed by substrate addition measured for 5 mins by spectrophotometric method; set-up: species or system Sus scrofa

## CC[C@H](C)[C@@H]1NC(=O)CNC(=O)[C@H](CC(C)C)NC(=O)[C@H]([C@@H](C)CC)NC(=O)[C@H]([C@@H](C)CC)NC(=O)[C@H](CO)N(C)C(=O)CN(C)C(=O)[C@H](CC(C)C)NC1=O (cyclo(GIL[Sar][NMeS]IIL))
[1]
  Papp: Impermeable
[2]
  Papp: Impermeable

## CC[C@H](C)[C@@H]1NC(=O)[C@H]([C@@H](C)O)NC(=O)CNC(=O)CNC(=O)[C@H](Cc2ccccc2)NC(=O)CNC(=O)[C@H](Cc2ccccc2)NC(=O)[C@H]([C@@H](C)CC)NC1=O (cyclo(FGFGGTII))
[1]
  Papp: Impermeable
[2]
  Papp: Impermeable
Caco-2
  Activity: Non-Toxic

## CC[C@H](C)[C@@H]1NC(=O)CNC(=O)[C@H](CC(C)C)NC(=O)[C@H]([C@@H](C)CC)NC(=O)[C@H]([C@@H](C)CC)NC(=O)[C@H](CO)N(C)C(=O)CNC(=O)[C@H](CC(C)C)NC1=O (cyclo(GILG[NMeS]IIL))
[1]
  Papp: Impermeable
[2]
  Papp: Impermeable

## CC(C)C[C@@H]1NC(=O)CNC(=O)[C@@H]2CCCN2C(=O)CNC(=O)[C@H](Cc2c[nH]c3ccccc23)NC(=O)[C@H](CC(C)C)NC(=O)[C@H](CC(N)=O)NC(=O)[C@H](CC(C)C)NC1=O (cyclo(GLLNLWGP))
[1]
  Papp: Impermeable
[2]
  Papp: Impermeable
Caco-2
  Activity: Non-Toxic
[3]
  IC50: 0.9 µM

## CC[C@H](C)[C@@H]1NC(=O)[C@H]([C@@H](C)O)NC(=O)CN(C)C(=O)CNC(=O)[C@H](Cc2ccccc2)NC(=O)CNC(=O)[C@H](Cc2ccccc2)N(C)C(=O)[C@H]([C@@H](C)CC)NC1=O (cyclo(FG[Sar]TII[NMeF]G))
[1]
  Papp: Impermeable
[2]
  Papp: Impermeable

## CC[C@H](C)[C@@H]1NC(=O)CNC(=O)[C@H](CC(C)C)NC(=O)[C@H]([C@@H](C)CC)NC(=O)[C@H]([C@@H](C)CC)NC(=O)[C@H](CO)NC(=O)CNC(=O)[C@H](CC(C)C)NC1=O (cyclo(GILGSIIL))
[1]
  Papp: Impermeable
[2]
  Papp: Impermeable
Caco-2
  Activity: Non-Toxic

## CC[C@H](C)[C@@H]1NC(=O)[C@H]([C@@H](C)CC)N(C)C(=O)[C@H](CO)NC(=O)CN(C)C(=O)[C@H](CC(C)C)N(C)C(=O)[C@H]([C@@H](C)CC)NC(=O)CN(C)C(=O)[C@H](CC(C)C)NC1=O (cyclo(IL[Sar]I[NMeL][Sar]S[NMeI]))
[1]
  Papp: Impermeable
[2]
  Papp: Permeable

## CC[C@H](C)[C@@H]1NC(=O)CNC(=O)[C@H](CC(C)C)NC(=O)[C@H]([C@@H](C)CC)NC(=O)[C@H]([C@@H](C)CC)NC(=O)[C@H](CO)NC(=O)CN(C)C(=O)[C@H](CC(C)C)NC1=O (cyclo(GIL[Sar]SIIL))
[1]
  Papp: Impermeable
[2]
  Papp: Impermeable

## CC[C@H](C)[C@@H]1NC(=O)[C@H]([C@@H](C)O)NC(=O)CN(C)C(=O)CNC(=O)[C@H](Cc2ccccc2)NC(=O)CNC(=O)[C@H](Cc2ccccc2)N(C)C(=O)[C@H]([C@@H](C)CC)N(C)C1=O (cyclo(FG[Sar]TI[NMeI][NMeF]G))
[1]
  Papp: Impermeable
[2]
  Papp: Impermeable

## CC[C@H](C)[C@@H]1NC(=O)[C@H]([C@@H](C)O)NC(=O)CN(C)C(=O)CN(C)C(=O)[C@H](Cc2ccccc2)NC(=O)CN(C)C(=O)[C@H](Cc2ccccc2)N(C)C(=O)[C@H]([C@@H](C)CC)NC1=O (cyclo(F[Sar][Sar]TII[NMeF][Sar]))
[1]
  Papp: Impermeable
[2]
  Papp: Impermeable
